Results: patent US20180298024A1, “CORTISTATIN ANALOGS AND USES THEREOF” (President and Fellows of Harvard College, priority 2015, published 2018)
Where “and” joins values, the source holds several entries; their conditions need not be identical. Equal entries are not always repeated. Where two headings read alike, the source gives them in different places.

Tests used:
[1] = tested on: off-targets (Panlabs); experiment: Panlab off-target assay panel; format: binding; settings: 10 μM; for number of targets with ≥75% inhibition: Safety Panel = 28 binding assays (Eurofins Panlabs)
Experimental: (§1) Compounds A, B, C, and D were tested in Panlab assays to evaluate potential off-target activity using standard assay kits. Methods employed in these studies have been adapted from the scientific literature to maximize reliability and reproducibility. Reference standards were run as an integral part of each assay to ensure the validity of the results obtained.
IC50 values were determined by a non-linear, least squares regression analysis using MathIQ™ (ID Business Solutions Ltd., UK). Where inhibition constants (Ki) are presented, the Ki values were calculated using the equation of Cheng and Prusoff (Cheng, Y., Prusoff, W. H., Biochem. Pharmacol. 22:3099-3108, 1973) using the observed IC50 of the tested compound, the concentration of radioligand employed in the assay, and the historical values for the KD of the ligand (obtained experimentally at Eurofins Panlabs, Inc.). Where presented, the Hill coefficient (nH), defining the slope of the competitive binding curve, was calculated using MathIQ™.

[2] = TurboSol solubility evaluation in physiological saline; format: physicochemical; settings: HB-PS+0.3% DMSO
[3] = molecular target: T1, CDK8 (Homo sapiens, UniProt P49336); experiment: CDK8 IC50 determination (Example 9); format: biochemical
[4] = molecular target: T1, CDK8; experiment: CDK8 Kd and residence time; format: binding
[5] = molecular target: T1, CDK8; experiment: Western blot study of CDK8 inhibition; format: cell-based; settings: decreased staining results from inhibition of the target
Experimental: CDK8 inhibition in cells as measured by inhibition of Interferon-gamma (IFNγ)-stimulated STAT1-S727 phosphorylation. The compounds were provided as 200 μl of 1×10^−03 M/100% stock solutions in vials. The vials arrived in good condition and 2×100 μl each of the stock solutions were transferred into wells A2 to H2 of a 96 well “master plate” (barcoded “11273-UNH-01”), according to Table 12.
The dose response curves presented above were corroborated with western blot studies.

[6] = tested on: SKNO-1; experiment: Half-maximal growth inhibition (GI50), SKNO-1; format: cell-based; settings: Homo sapiens, 240 h, AML, M2, RUNX1-RUNX1T1, read-out: GI50 (nM), day 10
Experimental: (§2) Compounds A, B, C, D, and F were tested against various cell lines to probe their broad utility against cancer. Cortistatin A (CA) was also tested against the cell lines in a head to head fashion.

[7] = tested on: MV4; 11; experiment: Half-maximal growth inhibition (GI50), MV4; 11; format: cell-based; settings: Homo sapiens, 240 h, AML, M5, MLL-AF4, read-out: GI50 (nM), day 10
Experimental: as §2

[8] = tested on: MOLM-14; experiment: Half-maximal growth inhibition (GI50), MOLM-14; format: cell-based; settings: Homo sapiens, 240 h, AML, M5, MLL-AF9, read-out: GI50 (nM), day 10
Experimental: as §2

[9] = tested on: HEL; experiment: Half-maximal growth inhibition (GI50), HEL; format: cell-based; settings: Homo sapiens, 240 h, AML, erythroleukemia, JAK2V617F, read-out: GI50 (nM), day 10
Experimental: as §2

[10] = tested on: SET-2 AML cell line (FLAG-CDK8 WT vs FLAG-CDK8-W105M); experiment: CDK8 W105M versus wild type SET-2 cell competition (flow cytometry); format: cell-based; settings: after 3 days and 7 days of treatment
Experimental: Compounds A, B, C, and D inhibit SET-2 AML cell line proliferation by inhibiting CDK8. ZsGreen (Clontech) and FLAG-CDK8 WT (wild type) or mCherry (Clontech) and FLAG-CDK8-W105M were expressed in SET 2 cells. The cells were mixed, the ratio of red to green fluorescence was determined by flow cytometry, and the cells were treated with the indicated compounds. After 3 days and 7 days of treatment, the ratio of red to green fluorescent cells was determined.

[11] = tested on: Human AML cell line MV4;11; experiment: MV4;11 disseminated leukemia model (bioluminescence); format: in vivo, NSG mice; settings: for Fold increase in leukemia burden 15 days after 1st dose / in vivo anti-leukemic efficacy (bioluminescence, words): NSG mice; for in vivo anti-leukemic efficacy (bioluminescence, words): compounds dosed at their highest tolerable dose; for Efficacy Rank Day 15: each compound at its own dose/schedule, data from 3 separate studies
Experimental: The in vivo anti-leukemic activity of Compounds A, B, C, D, and F was tested at the indicated doses and treatment schedules. The doses were chosen based on the compounds tolerability profile (i.e. CA was dosed at 0.16 mg/kg because higher doses caused weight loss or other tolerability issues outlined in Example 6). Human AML cell line MV4;11 expressing mCherry and luciferase were injected into NSG mice. Upon measurement of leukemia cell engraftment, treatment was initiated. Body weight and bioluminescence were measured. It has previously been shown (Shair, Nature 2015) that bioluminescence corresponds to leukemia burden. […] Moreover there was no appreciable advantage between IV or PO dosing observed.

[12] = Pharmacokinetic profile in mice (plasma, LC-MS/MS); settings: for Vd / clearance / AUC(0-inf) / Cmax / Tmax / bioavailability / concentration at 24 h: CD-1, mouse, plasma; for Vd / clearance: iv, 3 mg/kg; for AUC(0-inf) / Cmax / Tmax / bioavailability / concentration at 24 h: po; for ½ life: CD-1 mice
Experimental: Formulation correction for salt content was not required for this study. Materials were vortexed and sonicated at room temperature following addition of vehicle. The solutions were maintained at ambient temperature stirring in the dark for at least 30 minutes prior to dose administration. The formulations were then vortexed and sonicated briefly to help ensure solubility.
Mice were selected from the Testing Facility's rodent colony. The animals were enrolled in the study based on acceptable health as determined by Testing Facility personnel on the day of test article administration. Animals were held in environmental acclimation for at least 48 hours (±6 hours) prior to dosing. Animals were maintained at temperatures between 16-26° C. (62-78° F.) with the humidity range between 30-70%. Animals in all groups were fasted overnight and food was returned 4 hours following dosing. Water was provided ad libitum throughout the study.
Whole blood samples for plasma were either collected from each animal by either direct vein puncture of the submandibular vein (survival blood collection) or by cardiac puncture following euthanasia with CO2 (terminal blood collection). […] Following collection, whole blood was placed into a tube containing K2EDTA and immediately placed on wet ice until processed for plasma. Whole blood samples were centrifuged at 2200×g for 10 minutes in a refrigerated centrifuge (5±3° C.) to isolate plasma. The samples were transferred to individual polypropylene containers and immediately placed on dry ice before storage at −70±10° C. until analysis. Plasma collected from undosed spare animals was pooled and analyzed as well.
Once collected the mouse plasma studies were quantitated using LCMS/MS spectroscopy to determine the concentration of compound. […] Eight calibration standards containing the analyte and internal standard imipramine were prepared and analyzed at the beginning and at the end of the sequence. A calibration curve was generated and sample concentrations calculated using the Quantitation software MassHunter.

[13] = tested on: sodium channel; experiment: Panlab sodium channel assay; format: binding; settings: 10 μM
Experimental: as §1
(§3) Compound B was tested in a subset of 30 Panlab assays that included the hits from screening Compound F in addition to the Panlab hERG and sodium channel assay. This allows direct comparison of Compound B to Compound F in terms of off-target profile.

[14] = molecular target: hERG (Homo sapiens, UniProt Q12809); experiment: Panlab hERG assay; format: binding; parameters: Eurofins Panlabs
Experimental: as §1, §3

[15] = read-out: IC50 (nM) against CDK8, average
[16] = tested in duplicate, read-out: IC50 against CDK8, single determinations

T1 sequence (P49336 whole entry): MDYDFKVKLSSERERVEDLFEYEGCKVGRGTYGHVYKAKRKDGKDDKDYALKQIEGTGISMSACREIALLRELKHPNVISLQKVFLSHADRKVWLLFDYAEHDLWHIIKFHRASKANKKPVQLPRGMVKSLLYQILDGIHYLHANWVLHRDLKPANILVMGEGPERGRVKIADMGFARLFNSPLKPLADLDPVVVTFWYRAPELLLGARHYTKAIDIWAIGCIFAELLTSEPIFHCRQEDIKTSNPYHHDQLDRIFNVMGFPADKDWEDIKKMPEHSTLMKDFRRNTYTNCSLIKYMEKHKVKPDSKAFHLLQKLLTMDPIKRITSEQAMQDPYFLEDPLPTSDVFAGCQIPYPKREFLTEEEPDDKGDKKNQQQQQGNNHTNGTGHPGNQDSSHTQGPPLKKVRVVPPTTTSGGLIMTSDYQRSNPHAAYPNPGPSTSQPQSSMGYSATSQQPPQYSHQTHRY
T1 sequence (P24863 whole entry partner): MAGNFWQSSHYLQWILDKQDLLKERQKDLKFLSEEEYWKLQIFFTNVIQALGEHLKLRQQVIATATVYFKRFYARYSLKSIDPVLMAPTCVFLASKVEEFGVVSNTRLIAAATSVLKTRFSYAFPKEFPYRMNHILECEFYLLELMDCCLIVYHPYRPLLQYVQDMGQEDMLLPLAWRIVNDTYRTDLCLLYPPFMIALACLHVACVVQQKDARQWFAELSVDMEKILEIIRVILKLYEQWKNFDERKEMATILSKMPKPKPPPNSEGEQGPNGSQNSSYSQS
hERG, sequence (Q12809 whole entry): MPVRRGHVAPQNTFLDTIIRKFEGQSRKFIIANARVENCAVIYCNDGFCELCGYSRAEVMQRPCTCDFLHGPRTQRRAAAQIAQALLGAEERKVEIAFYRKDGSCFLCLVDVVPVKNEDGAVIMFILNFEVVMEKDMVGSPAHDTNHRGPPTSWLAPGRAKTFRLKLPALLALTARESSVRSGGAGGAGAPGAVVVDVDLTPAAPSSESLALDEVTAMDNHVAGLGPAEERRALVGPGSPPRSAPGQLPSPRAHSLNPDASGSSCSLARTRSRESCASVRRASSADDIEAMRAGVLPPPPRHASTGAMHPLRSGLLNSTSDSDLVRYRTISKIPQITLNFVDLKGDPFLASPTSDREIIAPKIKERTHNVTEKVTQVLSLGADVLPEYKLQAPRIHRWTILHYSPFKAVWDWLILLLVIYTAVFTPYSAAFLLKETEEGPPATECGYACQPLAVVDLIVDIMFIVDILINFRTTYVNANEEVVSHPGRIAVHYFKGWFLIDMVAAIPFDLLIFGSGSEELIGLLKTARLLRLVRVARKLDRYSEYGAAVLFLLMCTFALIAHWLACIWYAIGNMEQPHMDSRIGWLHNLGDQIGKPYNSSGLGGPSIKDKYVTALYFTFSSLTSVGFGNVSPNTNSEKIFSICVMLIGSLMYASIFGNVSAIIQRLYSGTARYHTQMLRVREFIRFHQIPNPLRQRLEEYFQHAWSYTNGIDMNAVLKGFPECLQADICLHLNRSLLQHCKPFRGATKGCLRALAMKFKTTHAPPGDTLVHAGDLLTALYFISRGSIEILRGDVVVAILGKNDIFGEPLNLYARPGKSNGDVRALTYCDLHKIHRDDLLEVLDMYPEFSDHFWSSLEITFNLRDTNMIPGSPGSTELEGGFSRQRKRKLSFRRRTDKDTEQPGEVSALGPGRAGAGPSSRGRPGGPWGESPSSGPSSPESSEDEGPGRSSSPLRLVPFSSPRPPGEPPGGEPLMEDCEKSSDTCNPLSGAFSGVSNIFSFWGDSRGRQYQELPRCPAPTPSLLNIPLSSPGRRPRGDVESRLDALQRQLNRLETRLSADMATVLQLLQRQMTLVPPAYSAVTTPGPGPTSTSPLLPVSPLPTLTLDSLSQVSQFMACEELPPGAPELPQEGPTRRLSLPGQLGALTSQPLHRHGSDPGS

Row | SMILES | number of targets with ≥75% inhibition [1] | Average LSU (×1000) ([2]; 1 μM) | Average LSU (×1000) ([2]; 3 μM) | Average LSU (×1000) ([2]; 10 μM) | Average LSU (×1000) ([2]; 30 μM) | solubility in the TurboSol assay [2] | IC50 [3, 15] [nM] | IC50 [3, 16] | Kd [4] [nM] | inhibition of CDK8 in Western blot [5] | GI50 [6] [nM] | GI50 [7] [nM] | GI50 [8] [nM] | GI50 [9] [nM] | ratio of red (CDK8 W105M) to green (wild type) fluorescent cells [10] | in vivo anti-leukemic efficacy (bioluminescence, words) [11] | Efficacy Rank Day 15 [11] | Vd [12] [L/kg] | clearance [12] [mL/min/kg] | AUC(0-inf) ([12]; 10 mg/kg) [ng·h/mL] | other results
1 | C[C@]12CC=C3C=C4CC[C@@H](O)C[C@]45CC[C@]3(O5)[C@@H]1CC[C@@H]2c1ccc2ccncc2c1 [Compound A, (3S,3aR,9R,10aR,12aS,12bR)-3-(isoquinolin-7-yl)-3a-methyl-1,2,3,3a,4,7,8,9,10,11,12,12b-dodecahydro-10a,12a-epoxybenzo[4,5]cyclohepta[1,2-e]inden-9-ol] | 0 | 5.8 LSU (×1000) | 5.1 LSU (×1000) | 9.0 LSU (×1000) | 41.0 LSU (×1000) | slightly insoluble at concentrations of 10 μM and 30 μM | 9.9 | 10.6 nM and 9.3 nM | 0.23 ± 0.02 | dose dependent response | 2 | 1.5 | 6 | > 1000 | dose-dependently shifted the ratio of red to green cells | similarly efficacious to Compound F | 5 | 1.12 | 18.4 | 3970 | number of targets with greater than 50% inhibition ([1]; over 100 Panlab assays): 8; residence time [4]: 447 min; Fold increase in leukemia burden 15 days after 1st dose ([11]; 20 mpk PO Q5Dx2): 10.4 fold; Cmax ([12]; 10 mg/kg): 3870 nM; Tmax ([12]; 10 mg/kg): 0.5 h; bioavailability ([12]; 10 mg/kg): 43.9%; concentration at 24 h ([12]; 10 mg/kg): 1.8 nM; ½ life ([12]; IV 3 mg/kg): 4.08 h; ½ life ([12]; PO 10 mg/kg): 3.04 h; AUC(0-inf) ([12]; male, 20 mg/kg): 7940 ng·h/mL
2 | C[C@]12CC=C3C=C4CC[C@@H](N5CC[C@@H](N)C5)C[C@]45CC[C@]3(O5)[C@@H]1CC[C@@H]2c1ccc2ccncc2c1 [Compound B] | 8 | 2.2 LSU (×1000) | 3.2 LSU (×1000) | 4.5 LSU (×1000) | 8.6 LSU (×1000) | slightly insoluble at 30 μM concentrations | 9.1 | 5.5 nM and 12.7 nM | 0.19 ± 0.05 | dose dependent response | 3 | 4 | 31 | > 1000 | dose-dependently shifted the ratio of red to green cells | superior in vivo efficacy as compared to Compound F | 3 | 26.6 | 31 | 1060 | % inhibition, Panlab sodium channel assay [13]: 65%; number of targets with greater than 50% inhibition ([1]; subset of 30 Panlab assays): 8; Fold increase in leukemia burden 15 days after 1st dose ([11]; 10 mpk PO 7 on/2off/6on): 5.2 fold; inhibition at 10 µM [14]: 34%; Cmax ([12]; 10 mg/kg): 218 nM; Tmax ([12]; 10 mg/kg): 2 h; bioavailability ([12]; 10 mg/kg): 19.8%; concentration at 24 h ([12]; 10 mg/kg): 26.4 nM; ½ life ([12]; IV 3 mg/kg): 18.7 h; ½ life ([12]; PO 10 mg/kg): 9.55 h; AUC(0-inf) ([12]; male, 10 mg/kg): 1060 ng·h/mL
3 | C[C@]12CC=C3C=C4CC[C@@H](N5CC(N)C5)C[C@]45CC[C@]3(O5)[C@@H]1CC[C@@H]2c1ccc2ccncc2c1 [Compound C] | 4 | 2.8 LSU (×1000) | 3.5 LSU (×1000) | 4.9 LSU (×1000) | 13.0 LSU (×1000) | slightly insoluble at 30 μM concentrations | 9.5 | 8.9 nM and 10.2 nM | 0.22 ± 0.03 | dose dependent response | 3 | 2 | 21 | > 1000 | dose-dependently shifted the ratio of red to green cells | superior in vivo efficacy as compared to Compound F | 2 | 26.4 | 23.7 | 2970 | % inhibition, Panlab sodium channel assay [13]: 66%; number of targets with greater than 75% inhibition ([1]; subset of 30 Panlab assays): 4; Fold increase in leukemia burden 15 days after 1st dose ([11]; 5 mpk PO 7on/4off/4on): 2.2 fold; inhibition at 10 µM [14]: 49%; Cmax ([12]; 10 mg/kg): 462 nM; Tmax ([12]; 10 mg/kg): 8 h; bioavailability ([12]; 10 mg/kg): 42.3%; concentration at 24 h ([12]; 10 mg/kg): 82.5 nM; ½ life ([12]; IV 3 mg/kg): 14.7 h; ½ life ([12]; PO 10 mg/kg): 6.68 h; AUC(0-inf) ([12]; male, 5 mg/kg): 1480 ng·h/mL
